Tests used:
M1 cells [1] = settings: background statement; cited from earlier work
[2] = test system: murine M1 leukaemic colonies; assay: M1 differentiation assay (specific biological activity); assay type: cell-based
Description: The functional activity of the m-hLIF hybrids was assayed by their ability to induce differentiation in murine M1 leukaemic colonies. M1 differentiation assays were performed as described (Metcalf et al, 1988). The specific activity of each hybrid was expressed as the units of M1 differentiation-inducing activity per milligram of protein.
The protein concentration of each purified sample was determined by amino acid analysis, and the amount of biologically active protein in each sample was estimated by its ability to induce differentiation in mouse M1 myeloid leukaemic colonies. An internal standard of mLIF (10^4 U/ml) was used to normalise all M1 cell bioassays (50 U/ml of LIF is defined as the concentration of LIF required for half maximal stimulation).

[3] = test system: mLBP (soluble mLIF-R α-chain); assay: Competitive inhibition of [125I]mLIF binding to mLBP; parameters: species or system mouse; settings: in words
Description: Normal mouse serum was used as a source of mLBP. For competitive binding experiments, 50 μl aliquots of unlabelled LIF or a mouse-human LIF hybrid were added to 96-well filtration assay plates containing a 0.65 micron Durapore membrane (Millipore, Mass., U.S.A.) with 20 μl aliquots of a 1/10 to 1/20 dilution of normal mouse serum, 10 μl radiolabelled ligand and 25 μl Concanavalin-A Sepharose 4B (ConA-Sepharose, Pharmacia, Uppsala) (diluted 1:4 in 100 mM sodium acetate pH6.0 containing 1 mM MnCl2, 1 mM MgCl2 and 1 mM CaCl2; this and all subsequent buffers contained 0.02% w/v sodium azide and 0.02% v/v Tween 20) and incubated at room temperature overnight with agitation. Bound and free radioactivity were separated by vacuum filtration of the supernatant and the ConA-Sepharose pellet was washed once with 200 μl cold PBS. Assay plates containing the cell pellet were then exposed to a phosphor screen (Molecular Dynamics, Calif., U.S.A.) for 16-24 hours and the results quantified using Imagequant version 3.0 software (Molecular Dynamics).
The structural integrity of all m-hLIF chimeras was also verified by evaluating their ability to bind correctly to the mLIF-R α-chain.

M1 cells [4] = assay: Serum dose inhibition of M1 colony differentiation by normal mouse serum (mLBP); assay type: cell-based, murine; settings: up to 200 U/ml hLIF
Description: For serum dose inhibition assays, the specific activity of each LIF preparation was determined by titration in cultures of M1 cells. Aliquots of normal mouse serum (containing approximately 5 μg/ml mLBP) were then added in serial 2-fold dilutions to cultures of M1 cells that also contained a just maximal concentration (200 U) of mLIF (SEQ. ID. NO:1), hLIF (SEQ. ID. NO:2) or m-hLIF hybrid. Assays including mLIF and hLIF gave identical results when either crude mouse serum or a highly purified preparation of mLBP was used. Hybrids were assessed for mLIF or hLIF character from the dilution of serum required to block 50% of their M1 cell differentiation-inducing activity.
A 1:4 to 1:8 dilution of normal mouse serum (equivalent to ~0.5-1 μg/ml mLBP) is required to block 50% of the M1 differentiation-inducingactivity of up to 200 U/ml mLIF, whereas, due to the higher affinity of hLIF for mLBP, a 1:8192 dilution of serum (~0.6 ng/ml mLBP) is sufficient to block 50% of the M1 activity of up to 200 U/ml hLIF. This ability of mLBP to inhibit the differentiation-inducing activity of LIF in a species-specific manner was utilized as a second assay that distinguished hLIF from mLIF. […]

[5] = test system: mLBP (soluble mLIF-R α-chain); assay: Competitive inhibition of [125I]hLIF binding to mLBP (hLIF-like activity score); parameters: species or system mouse; settings: logarithmic scale, hLIF = 100%, mLIF = 0%; mean±SEM
Excerpt: Reference is made herein to the subject molecule having at least about 35% hLIF-like activity. More preferably, the molecule has at least about 50% hLIF-like activity and even more preferably at least about 70% hLIF-like activity. hLIF-like activity is defined in terms of the ability for a molecule to compete for ^125 I-hLIF binding to mLBP based on the equation: [formula]
wherein xm is the dose of unlabelled mLIF; xh is the dose of unlabelled hLIF; xc is the dose of the molecule (e.g. protein, polypeptide or peptide) required to give 50% inhibition of ^125 I-hLIF binding to mLBP.
Normal mouse serum was used as a source of mLBP. […] Bound and free radioactivity were separated by vacuum filtration of the supernatant and the ConA-Sepharose pellet was washed once with 200 μl cold PBS. Assay plates containing the cell pellet were then exposed to a phosphor screen (Molecular Dynamics, Calif., U.S.A.) for 16-24 hours and the results quantified using Imagequant version 3.0 software (Molecular Dynamics). […]

ability to compete for [125I]mLIF binding to mLBP [3]: approximately equal ability
hLIF-like activity (percentage human score) calculated from ID50 for inhibition of [125I]hLIF binding to mLBP [5]: 100%
Substance: hLIF: human leukaemia inhibitory factor, H1-180 (SEQ. ID. NO:2), recombinant from E. coli
mLBP more potent inhibitor of hLIF than mLIF (inhibition of biological responses to LIF) (M1 cells [1]): approximately 1000 fold
biological activity in a mouse cell bioassay, in words [2]: nearly equal biological activities
specific biological activity (units of LIF activity per milligram of protein) ([2]; mouse M1 cells, 50 U/ml = half maximal stimulation): 1-3×10^8 U/mg
mLBP concentration equivalent to serum dilution blocking 50% of M1 activity (M1 cells [4]): ~ 0.6 ng/ml
